According to ChEMBL document CHEMBL2429821, “A Casein kinase 1/Checkpoint kinase 1 pyrazolo-pyridine protein kinase inhibitor as novel activator of the p53 pathway” (Bioorg Med Chem Lett, 2013):

What was measured:
[1] = target: T1, Serine/threonine-protein kinase Nek2 (Homo sapiens) (UniProt P51955); assay: Inhibition of human NEK2alpha assessed as residual activity at 10 uM relative to control
T1 sequence (whole entry): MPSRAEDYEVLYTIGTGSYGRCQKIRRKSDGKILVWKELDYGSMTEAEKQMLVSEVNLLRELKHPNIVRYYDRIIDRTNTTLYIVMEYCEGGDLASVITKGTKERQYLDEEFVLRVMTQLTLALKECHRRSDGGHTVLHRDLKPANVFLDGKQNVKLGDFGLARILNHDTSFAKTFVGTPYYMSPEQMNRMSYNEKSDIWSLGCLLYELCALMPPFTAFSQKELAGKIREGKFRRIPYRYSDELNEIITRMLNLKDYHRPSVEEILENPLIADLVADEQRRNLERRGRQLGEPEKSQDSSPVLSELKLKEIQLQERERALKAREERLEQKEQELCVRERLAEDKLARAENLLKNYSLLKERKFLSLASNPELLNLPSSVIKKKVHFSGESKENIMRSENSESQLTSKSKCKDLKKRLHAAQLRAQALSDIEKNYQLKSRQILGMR

[2] = target: Dual specificity tyrosine-phosphorylation-regulated kinase 1A (Rattus norvegicus) (UniProt Q63470); assay: Inhibition of rat DYRK1alpha assessed as residual activity at 1 uM relative to control
[3] = target: Tyrosine-protein kinase BTK (Homo sapiens) (UniProt Q06187); assay: Inhibition of human BTK assessed as residual activity at 1 uM relative to control
[4] = target: Maternal embryonic leucine zipper kinase (Homo sapiens) (UniProt Q14680); assay: Inhibition of human MELK assessed as residual activity at 1 uM relative to control
Chain of Maternal embryonic leucine zipper kinase (Homo sapiens) (Q14680 whole entry, looked up): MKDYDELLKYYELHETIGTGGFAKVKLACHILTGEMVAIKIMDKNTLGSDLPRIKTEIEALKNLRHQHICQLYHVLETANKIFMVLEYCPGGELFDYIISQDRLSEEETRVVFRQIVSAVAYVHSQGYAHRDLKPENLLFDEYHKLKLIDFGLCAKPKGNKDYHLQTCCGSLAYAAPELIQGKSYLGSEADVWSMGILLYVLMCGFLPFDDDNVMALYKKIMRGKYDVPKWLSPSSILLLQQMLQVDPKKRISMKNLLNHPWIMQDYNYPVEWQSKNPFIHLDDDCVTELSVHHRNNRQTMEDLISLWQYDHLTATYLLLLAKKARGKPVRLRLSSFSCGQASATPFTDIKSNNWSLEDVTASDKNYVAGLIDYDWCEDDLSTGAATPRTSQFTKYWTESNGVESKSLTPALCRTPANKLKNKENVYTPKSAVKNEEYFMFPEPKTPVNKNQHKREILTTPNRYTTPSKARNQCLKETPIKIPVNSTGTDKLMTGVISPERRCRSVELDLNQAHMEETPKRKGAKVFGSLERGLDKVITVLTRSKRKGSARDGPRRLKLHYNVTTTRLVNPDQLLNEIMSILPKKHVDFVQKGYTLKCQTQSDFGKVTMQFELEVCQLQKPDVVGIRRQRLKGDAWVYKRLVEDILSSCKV

[5] = target: Fibroblast growth factor receptor 1 (Homo sapiens, UniProt P11362); assay: Inhibition of human FGFR1 assessed as residual activity at 10 uM relative to control
Chain of Fibroblast growth factor receptor 1 (P11362 22-822 limits assumed): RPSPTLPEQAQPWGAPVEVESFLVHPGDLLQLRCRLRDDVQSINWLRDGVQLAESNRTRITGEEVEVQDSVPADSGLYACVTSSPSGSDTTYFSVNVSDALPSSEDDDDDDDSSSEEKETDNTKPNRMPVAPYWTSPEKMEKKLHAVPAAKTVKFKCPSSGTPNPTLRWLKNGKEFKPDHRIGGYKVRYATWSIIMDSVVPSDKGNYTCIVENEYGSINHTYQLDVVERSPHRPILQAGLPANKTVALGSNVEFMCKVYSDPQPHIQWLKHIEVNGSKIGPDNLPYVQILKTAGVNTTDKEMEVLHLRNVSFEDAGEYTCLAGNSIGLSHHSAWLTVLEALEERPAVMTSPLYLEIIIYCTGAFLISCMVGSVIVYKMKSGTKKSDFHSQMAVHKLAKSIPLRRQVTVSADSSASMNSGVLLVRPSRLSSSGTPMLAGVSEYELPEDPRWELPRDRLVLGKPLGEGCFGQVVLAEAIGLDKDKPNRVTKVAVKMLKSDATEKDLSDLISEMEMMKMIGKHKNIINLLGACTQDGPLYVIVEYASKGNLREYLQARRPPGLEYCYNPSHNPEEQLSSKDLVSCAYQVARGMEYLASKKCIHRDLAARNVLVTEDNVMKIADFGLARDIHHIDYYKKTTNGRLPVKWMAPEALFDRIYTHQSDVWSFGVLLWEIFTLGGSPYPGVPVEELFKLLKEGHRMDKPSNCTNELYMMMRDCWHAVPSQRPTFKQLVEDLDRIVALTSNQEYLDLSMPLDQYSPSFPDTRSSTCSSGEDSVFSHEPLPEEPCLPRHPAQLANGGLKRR

[6] = target: Ribosomal protein S6 kinase alpha-3 (Homo sapiens) (UniProt P51812); assay: Inhibition of human RSK2 assessed as residual activity at 10 uM relative to control
[7] = target: Aurora kinase B (Homo sapiens) (UniProt Q96GD4); assay: Inhibition of human Aurora-B assessed as residual activity at 1 uM relative to control
[8] = species: Bos taurus; assay: Inhibition of cow PKA assessed as residual activity at 10 uM relative to control
[9] = target: Protein kinase C alpha type (Homo sapiens) (UniProt P17252); assay: Inhibition of human PKCalpha assessed as residual activity at 10 uM relative to control
[10] = target: T2, Inhibitor of nuclear factor kappa-B kinase subunit epsilon (Homo sapiens) (UniProt Q14164); assay: Inhibition of human IKKepsilon assessed as residual activity at 10 uM relative to control
T2 sequence (whole entry): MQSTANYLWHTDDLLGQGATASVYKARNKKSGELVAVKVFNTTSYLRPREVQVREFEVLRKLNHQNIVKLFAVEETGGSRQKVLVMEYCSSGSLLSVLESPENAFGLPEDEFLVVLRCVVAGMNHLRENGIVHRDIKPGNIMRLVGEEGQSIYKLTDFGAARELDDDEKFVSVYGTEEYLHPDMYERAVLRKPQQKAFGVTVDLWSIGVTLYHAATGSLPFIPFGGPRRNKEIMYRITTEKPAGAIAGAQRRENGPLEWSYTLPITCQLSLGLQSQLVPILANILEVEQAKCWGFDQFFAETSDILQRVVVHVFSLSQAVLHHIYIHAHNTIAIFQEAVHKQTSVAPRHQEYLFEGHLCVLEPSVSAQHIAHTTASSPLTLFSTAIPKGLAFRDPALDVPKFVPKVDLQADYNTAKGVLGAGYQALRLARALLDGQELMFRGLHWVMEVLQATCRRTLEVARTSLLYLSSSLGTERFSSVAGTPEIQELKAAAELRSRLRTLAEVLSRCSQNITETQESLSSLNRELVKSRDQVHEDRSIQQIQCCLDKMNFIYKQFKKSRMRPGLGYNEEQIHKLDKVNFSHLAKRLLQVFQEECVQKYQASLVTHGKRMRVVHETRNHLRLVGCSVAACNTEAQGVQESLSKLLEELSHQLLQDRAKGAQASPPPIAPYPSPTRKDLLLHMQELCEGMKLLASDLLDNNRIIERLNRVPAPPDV

[11] = target: Homeodomain-interacting protein kinase 2 (Homo sapiens) (UniProt Q9H2X6); assay: Inhibition of human HIPK2 assessed as residual activity at 1 uM relative to control
Chain of Homeodomain-interacting protein kinase 2 (Homo sapiens) (Q9H2X6 whole entry, looked up): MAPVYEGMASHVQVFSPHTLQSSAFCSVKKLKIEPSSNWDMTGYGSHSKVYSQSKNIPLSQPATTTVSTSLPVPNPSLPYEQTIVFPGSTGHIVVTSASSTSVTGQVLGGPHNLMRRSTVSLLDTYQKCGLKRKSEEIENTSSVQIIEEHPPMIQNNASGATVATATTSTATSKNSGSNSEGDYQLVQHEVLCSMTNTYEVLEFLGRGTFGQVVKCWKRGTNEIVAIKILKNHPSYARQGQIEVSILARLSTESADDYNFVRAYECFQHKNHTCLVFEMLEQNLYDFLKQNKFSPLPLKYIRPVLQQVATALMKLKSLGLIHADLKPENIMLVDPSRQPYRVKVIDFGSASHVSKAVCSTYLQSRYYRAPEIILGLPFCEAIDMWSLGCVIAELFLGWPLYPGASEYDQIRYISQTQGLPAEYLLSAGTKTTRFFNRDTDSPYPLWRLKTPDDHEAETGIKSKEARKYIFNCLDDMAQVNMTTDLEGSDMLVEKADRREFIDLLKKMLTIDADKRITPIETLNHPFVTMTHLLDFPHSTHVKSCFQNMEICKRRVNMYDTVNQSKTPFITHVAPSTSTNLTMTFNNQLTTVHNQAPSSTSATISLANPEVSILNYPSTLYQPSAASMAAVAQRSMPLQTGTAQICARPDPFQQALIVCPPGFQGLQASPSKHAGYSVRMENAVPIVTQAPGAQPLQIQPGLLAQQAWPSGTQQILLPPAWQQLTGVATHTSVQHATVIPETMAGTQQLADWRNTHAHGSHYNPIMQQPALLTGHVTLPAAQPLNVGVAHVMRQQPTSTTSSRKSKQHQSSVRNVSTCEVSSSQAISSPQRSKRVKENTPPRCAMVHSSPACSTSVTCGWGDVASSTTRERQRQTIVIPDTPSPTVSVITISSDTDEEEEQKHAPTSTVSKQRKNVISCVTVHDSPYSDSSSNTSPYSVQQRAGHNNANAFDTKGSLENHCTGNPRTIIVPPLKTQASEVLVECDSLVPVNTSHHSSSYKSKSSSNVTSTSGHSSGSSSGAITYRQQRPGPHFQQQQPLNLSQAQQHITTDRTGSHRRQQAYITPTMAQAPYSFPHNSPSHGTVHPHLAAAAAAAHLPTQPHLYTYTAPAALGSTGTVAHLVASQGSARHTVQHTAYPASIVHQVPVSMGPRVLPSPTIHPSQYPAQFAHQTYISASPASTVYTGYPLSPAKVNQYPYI

[12] = target: Serine/threonine-protein kinase Chk2 (Homo sapiens) (UniProt O96017); assay: Inhibition of human CHK2 assessed as residual activity at 10 uM relative to control
[13] = target: Serine/threonine-protein kinase N2 (Homo sapiens) (UniProt Q16513); assay: Inhibition of human PRK2 assessed as residual activity at 1 uM relative to control
Chain of Serine/threonine-protein kinase N2 (Homo sapiens) (Q16513 whole entry, looked up): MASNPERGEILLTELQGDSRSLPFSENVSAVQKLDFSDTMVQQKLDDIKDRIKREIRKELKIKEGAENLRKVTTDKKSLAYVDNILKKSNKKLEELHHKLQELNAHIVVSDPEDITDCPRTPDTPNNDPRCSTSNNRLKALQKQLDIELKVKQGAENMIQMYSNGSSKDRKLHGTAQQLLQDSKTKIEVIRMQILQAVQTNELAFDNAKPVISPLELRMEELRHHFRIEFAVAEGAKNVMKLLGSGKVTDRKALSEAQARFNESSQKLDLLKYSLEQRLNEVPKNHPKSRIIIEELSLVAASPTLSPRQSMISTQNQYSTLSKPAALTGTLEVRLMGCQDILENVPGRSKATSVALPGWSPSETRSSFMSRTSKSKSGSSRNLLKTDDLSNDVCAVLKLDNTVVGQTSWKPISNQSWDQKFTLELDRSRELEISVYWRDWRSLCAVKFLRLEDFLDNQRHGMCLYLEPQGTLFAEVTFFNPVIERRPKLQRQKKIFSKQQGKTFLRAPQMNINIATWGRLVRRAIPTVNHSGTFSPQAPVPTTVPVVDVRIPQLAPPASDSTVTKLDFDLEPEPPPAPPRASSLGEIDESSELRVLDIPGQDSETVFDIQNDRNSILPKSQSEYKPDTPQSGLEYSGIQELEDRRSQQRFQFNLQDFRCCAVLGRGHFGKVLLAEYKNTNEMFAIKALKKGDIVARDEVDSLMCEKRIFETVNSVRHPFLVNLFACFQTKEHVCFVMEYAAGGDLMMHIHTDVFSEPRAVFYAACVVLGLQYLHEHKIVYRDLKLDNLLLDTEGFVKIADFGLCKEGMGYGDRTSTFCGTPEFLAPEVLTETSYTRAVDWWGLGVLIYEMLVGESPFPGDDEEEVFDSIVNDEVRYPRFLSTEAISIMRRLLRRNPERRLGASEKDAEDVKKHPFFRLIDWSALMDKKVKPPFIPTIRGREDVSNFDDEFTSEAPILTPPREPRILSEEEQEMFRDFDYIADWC

[14] = target: Serine/threonine-protein kinase PLK1 (Homo sapiens) (UniProt P53350); assay: Inhibition of human PLK1 assessed as residual activity at 1 uM relative to control
Chain of Serine/threonine-protein kinase PLK1 (Homo sapiens) (P53350 whole entry): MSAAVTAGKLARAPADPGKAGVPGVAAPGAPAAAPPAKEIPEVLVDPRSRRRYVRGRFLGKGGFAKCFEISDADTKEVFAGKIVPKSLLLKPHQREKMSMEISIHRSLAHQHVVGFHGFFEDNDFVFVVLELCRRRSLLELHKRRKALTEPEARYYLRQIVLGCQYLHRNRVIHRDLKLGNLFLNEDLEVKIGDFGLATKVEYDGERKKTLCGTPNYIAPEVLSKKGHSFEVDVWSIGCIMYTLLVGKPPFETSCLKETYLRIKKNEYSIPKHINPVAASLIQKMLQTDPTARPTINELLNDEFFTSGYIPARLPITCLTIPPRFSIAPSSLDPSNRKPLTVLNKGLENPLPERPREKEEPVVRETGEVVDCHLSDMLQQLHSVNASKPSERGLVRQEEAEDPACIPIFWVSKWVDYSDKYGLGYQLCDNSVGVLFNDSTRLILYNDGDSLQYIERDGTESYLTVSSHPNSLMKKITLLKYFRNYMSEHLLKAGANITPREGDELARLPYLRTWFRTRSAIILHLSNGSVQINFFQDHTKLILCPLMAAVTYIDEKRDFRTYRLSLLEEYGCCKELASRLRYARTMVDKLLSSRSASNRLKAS

[15] = target: MAP/microtubule affinity-regulating kinase 3 (Homo sapiens) (UniProt P27448); assay: Inhibition of human MARK3 assessed as residual activity at 10 uM relative to control
[16] = target: Maternal embryonic leucine zipper kinase (Homo sapiens) (UniProt Q14680); assay: Inhibition of human MELK assessed as residual activity at 10 uM relative to control
[17] = target: RAC-beta serine/threonine-protein kinase (Homo sapiens) (UniProt P31751); assay: Inhibition of human PKBbeta assessed as residual activity at 1 uM relative to control

| Compound | Activity [1] | Activity [2] | Activity [3] | Activity [4] | Activity [5] | Activity [6] | Activity [7] | Activity [8] | Activity [9] | Activity [10] | Activity [11] | Activity [12] | Activity [13] | Activity [14] | Activity [15] | Activity [16] | Activity [17] |
| --- | --- | --- | --- | --- | --- | --- | --- | --- | --- | --- | --- | --- | --- | --- | --- | --- | --- |
| CC(=O)Nc1cccc(-c2cnc3[nH]nc(C)c3c2)c1 | 10.5% | 76.2% | 93.2% | 76.1% | 54.6% | 78.3% | 77.2% | 83.3% | 104% | 52% | 72% | 28.9% | 99.9% | 106% | 17.9% | 38.9% | 94.6% |
| CCCC(=O)Nc1n[nH]c2ncc(-c3cccnc3)cc12 | 90% | 5% | 85% | 115% | 68% | 87% | 102% | 94% | 81% | 89% | 72% | 96% | 81% | 97% | 62% | 64% | 94% |
| CC(=O)Nc1nccc(-c2c(-c3ccccc3)noc2C)n1 | 82.7% | 91.9% | 103% | 103% | 99.6% | 103% | 93.5% | 92.8% | 99.9% | 82.4% | 98.9% | 78.8% | 77.6% | 76% | 79.2% | 106% | 89.7% |
